Reference: PubChem BioAssay (NCI)
Values joined by “and” are separate entries in the source; they are usually repeats but may differ in a detail not shown here. Equal entries are not always repeated.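 Five compound concentrations were applied to cells in 96-well plates for 48 hours; endpoints were derived by simple linear interpolation of the resulting dose-response curve. TGI: concentration producing complete growth inhibition.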

Tests used:
Test in all cases: NCI tumour cell line growth inhibition, 48 h
SNB-78 CNS = test system: SNB-78 CNS
LXFL 529 NSCLC = test system: LXFL 529 NSCLC
DLD-1 colon = test system: DLD-1 colon
XF 498 CNS = test system: XF 498 CNS
KM20L2 colon = test system: KM20L2 colon
HOP-18 NSCLC = test system: HOP-18 NSCLC
M19-MEL melanoma = test system: M19-MEL melanoma
RXF-631 renal = test system: RXF-631 renal
SN12K1 renal = test system: SN12K1 renal
P388/ADR leukemia = test system: P388/ADR leukemia
P388 leukemia = test system: P388 leukemia

Row | Structure (SMILES) | TGI (SNB-78 CNS) | TGI (LXFL 529 NSCLC) | TGI (DLD-1 colon) | TGI (XF 498 CNS) | TGI (KM20L2 colon) | TGI (HOP-18 NSCLC) | TGI (M19-MEL melanoma) | TGI (RXF-631 renal) | TGI (SN12K1 renal) | TGI (P388/ADR leukemia) | TGI (P388 leukemia)
1 | Brc1ccc(N2C[N+](c3ccc(Br)cc3)=NC(c3ccccc3)=N2)cc1 | 70.6 µM and > 100 µM | 23 µM and > 100 µM | 25.2 µM and > 100 µM | 35.5 µM and > 100 µM | 33.8 µM and > 100 µM | 28 µM and > 100 µM | 29.7 µM and > 100 µM | – | – | – | –
2 | O=C(c1cccs1)N(C(=S)N1CCN(c2ccccc2)CC1)c1ccccc1 | > 100 µM | > 100 µM | > 100 µM | – | > 100 µM | > 100 µM | > 100 µM | – | – | – | –
3 | COc1ccc(C(=O)Cc2cc(OC)ccc2OC)cc1 | > 100 µM | > 100 µM | > 100 µM | – | > 100 µM | > 100 µM | > 100 µM | > 100 µM | – | – | –
4 | O=S1(=O)NNC(=NCc2ccc(F)cc2)c2ccccc21 | > 100 µM | > 100 µM | > 100 µM | > 100 µM | > 100 µM | – | > 100 µM | – | – | – | –
5 | O=CNc1cccc2c3c([nH]c12)CCCCCC3 | > 100 µM | – | > 100 µM | > 100 µM | > 100 µM | > 100 µM | > 100 µM | – | > 100 µM | > 100 µM | > 100 µM
6 | Cc1ccc(S(=O)(=O)C(C#N)c2nc3ccccc3nc2-n2cccn2)cc1 (stereo not given) | > 100 µM | > 100 µM | > 100 µM | > 100 µM | – | > 100 µM | > 100 µM | – | – | – | –
7 | CC(=O)O[C@]12CCCCCCC1C1(O)C(O)CCC[C@H]12 (stereo not given in full) | > 100 µM | > 100 µM | – | > 100 µM | > 100 µM | > 100 µM | > 100 µM | – | – | – | –
8 | C=C1C(=O)O[C@H]2C1[C@H](OC(=O)/C(C)=C\COC(C)=O)C[C@]1(CO1)[C@@H]1[C@H](O)[C@H]3O[C@@]3(C)[C@@H]12 (stereo not given in full) | > 73.5 µM | – | 34.1 µM | 38.4 µM | > 82.7 µM | 41.4 µM | 34.4 µM | – | > 55.9 µM | 30 µM | 18.4 µM
9 | Cc1nc2c(n1Cc1ccc(Cl)cc1)C(=O)c1ccccc1C2=O | > 75 µM | > 75 µM | > 75 µM | > 75 µM | > 75 µM | – | > 75 µM | – | – | – | –
10 | NC1=NS(=O)(=O)N=C(N)C1=Cc1ccc([N+](=O)[O-])o1 | 47.9 µM | 30.8 µM | 33.7 µM | 32.7 µM | 31.3 µM | 31.8 µM | 30 µM | – | – | – | –
11 | CCCCN(CCCC)C(=NCc1ccccc1)NC#N | 70.2 µM | 31.2 µM | 47 µM | – | 52.2 µM | > 100 µM | 36.1 µM | – | – | – | –
